Compared with `COc1ccc2cnc(Nc3ccc(N4CCNCC4)cn3)nc2c1C1CCCC1`, `CC(C)(C)OC(=O)N(Cc1ccc(C2CCCCC2)cc1)c1nc(Oc2ccc(F)cc2)c2ncn(CC(=O)O)c2n1` is lower in melting point: greater than 200 °C for the first, 119 to 133 °C for the second.

Compared with `CC(C)C[C@H](NC(=O)OC(C)(C)C)C(=O)NCCCC(c1ccc(F)cc1)c1ccc(F)cc1`, `CC(C)C[C@H](NC(=O)OCC1c2ccccc2-c2ccccc21)C(=O)OC(C)(C)C` is higher in melting point: 50 to 55 °C for the first, 183 to 184 °C for the second.

First: CS(=O)(=O)c1ccc(NC(=O)c2ccccc2Br)cc1
Second: Cc1ccc(-c2cc(C)cn2-c2ccc(S(N)(=O)=O)cc2)cc1
The melting point of the first is lower: 168 to 169 °C for the first, 175 to 176 °C for the second.

First: CN(Cc1ccccc1)C1c2ccccc2CCCC1O (stereo not drawn)
Second: [N-]=[N+]=NC1CCc2ccccc2N(c2ccccc2)C1=O (stereo not drawn)
The melting point of the first is lower: 70 °C for the first, 141 to 143 °C for the second.

First: CCOC(=O)CNC(=O)CCl
Second: CCOC(=O)c1n[nH]c2ncc(I)cc2c1=O
The melting point of the first is lower: 60 to 62 °C for the first, 238 to 242 °C for the second.

Compared with `COc1cccc(-c2ccc(C(=O)NCCOc3ccc(CC(Oc4ccc(C(C)C)cc4)C(=O)O)cc3)cc2)c1` (stereo not drawn), `Oc1ccc2c(c1)CCCC(c1ccccc1)=C2c1ccc(OCCCCCSCc2ccc(C(F)(F)F)cc2)cc1` is higher in melting point: 138 to 139 °C for the first, 147 °C for the second.

First: O=C(c1ccc(Cl)c(Cl)c1)N(CCCCn1ccnc1)C1=Nc2cccc3cccc1c23
Second: O=C1c2cccc3cccc(c23)C(=O)N1CCCCBr
The melting point of the first is higher: 138 to 141 °C for the first, 113 to 115 °C for the second.

First: CC(=O)OCc1ccc(-c2nc3c(s2)C(=O)c2ccccc2C3=O)o1
Second: Cc1ccc2c(c1)NC(=O)c1ccccc1O2
The melting point of the first is lower: 204 °C for the first, 231 to 232 °C for the second.

Compared with `COc1ccc(/C=C/c2ncccc2C(=O)O)cc1`, `CC(=NOc1ccc(C=O)cc1)c1ccc(C)cc1` is lower in melting point: 230 to 233 °C for the first, 96 to 98 °C for the second.

First: O=C(Nc1nc(-c2ccco2)c(C(=O)c2ccnc(N3CCOCC3)c2)s1)c1ccncc1
Second: O=C(Nc1nc(-c2ccco2)c(C(=O)c2ccncn2)s1)c1ccncc1
The melting point of the first is lower: 270 to 273 °C for the first, greater than 300 °C for the second.

Compared with `CCCCCC1OCc2cc(C(=O)Oc3ccc(CCC)cc3)ccc2O1` (stereo not drawn), `CCCCCCOc1ccc(CCCCCCCCC(=O)O)cc1` is lower in melting point: 97.5 °C for the first, 79 to 81 °C for the second.

First: COc1cc(NC(=O)OC(C)(C)C)c([N+](=O)[O-])cc1C#Cc1ccccc1
Second: COC(=O)N(C)NC(=O)Oc1ccccc1
The melting point of the first is higher: 129 °C for the first, 86 °C for the second.

Compared with `CNc1nc(N=[N+]=[N-])ncc1C#N`, `Cc1ncnc(C)c1C(=O)O` is lower in melting point: 225 to 230 °C for the first, 203 to 204 °C for the second.

First: CCOC(=O)c1ncn(-c2ccc(C(F)(F)F)cc2N)c1C
Second: CCOC(=O)c1ncn2c1CNC(=O)c1c(Cl)cccc1-2
The melting point of the first is lower: 185 to 186 °C for the first, 278 to 279 °C for the second.

First: COc1ccc(N2CCN(N=O)CC2)cc1
Second: Cc1cccc(N2CCN(CCc3c(C)nc4ccc(Cl)cn4c3=O)CC2)c1
The melting point of the first is lower: 94.5 °C for the first, 119 to 120 °C for the second.

First: COc1ccc2c(c1)CCC(NCC(=O)O)C2 (stereo not drawn)
Second: COc1cc(OCC(=O)O)c2c3c(n(Cc4ccccc4)c2c1)CCCC3C(N)=O (stereo not drawn)
The melting point of the first is lower: 195 to 198 °C for the first, 251 to 254 °C for the second.

First: O=C(NCC(=O)N(O)CCCP(=O)(O)O)OCc1ccccc1
Second: O=C(NC(Cc1ccccc1)P(O)O)OCc1ccccc1 (stereo not drawn)
The melting point of the first is lower: 101 to 105 °C for the first, 137 °C for the second.

First: CCSc1snc(OCOCC#CI)c1C#N
Second: CCCOCc1nc(C(C)(C)O)c(C(=O)OCCC)[nH]1
The melting point of the first is lower: 57 to 58 °C for the first, 72 to 73 °C for the second.

First: CC(=O)C1=CCC2C3CCC4=CC(=O)CCC4(C)C3=CCC12C (stereo not drawn)
Second: CSC1NC(=O)N(c2ccc(Cl)cc2)C(=O)N1N=C(C)C (stereo not drawn)
The melting point of the first is higher: 200 to 201 °C for the first, 142 to 144 °C for the second.

First: Cc1ccc(Sc2cncc3sc(C=NOCC(N)=O)cc23)cc1
Second: Cc1ccc(C)c(C(=O)c2cc(Cl)ccc2Cl)c1
The melting point of the first is higher: 152 to 156 °C for the first, 58 to 61 °C for the second.

First: CCCc1c(OCCCCCOc2ccc(CCC(=O)O)cc2CCC(=O)O)ccc2c1OCCC2=O
Second: CCCn1nc(SCCCCCCC(=O)O)c(C(=O)O)c1Cc1cc2c(cc1Cl)OCO2
The melting point of the first is lower: 108 to 109 °C for the first, 180 °C for the second.

First: COCOc1ccc(-n2cc(C(=O)O)c(=O)cc2-c2ccc(N(C)C)cc2)cc1
Second: CCOC(=O)c1cc(-c2ccc(OCc3ccccc3)cc2)n[nH]1
The melting point of the first is lower: 150 to 152 °C for the first, 160 to 170 °C for the second.

First: CCc1nnc2n1-c1ccc(Cl)cc1C(c1ccccc1)=NC2
Second: O=c1c2ccccc2n(Cc2ccccc2)c2cc(Cl)ccc12
The melting point of the first is higher: 229 to 230 °C for the first, 134 to 136 °C for the second.

Compared with `Oc1cc(Cl)nnc1-c1ccc(F)cc1`, `Nc1cc(-c2nnc(SCc3ccc(F)cc3)o2)ccn1` is lower in melting point: 254 to 260 °C for the first, 200 to 201 °C for the second.

Compared with `COC1CCc2c(cc(-c3ccccc3)n2-c2ccc(O)c(C(=O)O)c2)C1` (stereo not drawn), `Cc1cc(-c2ccccc2)nc(-c2cccc([N+](=O)[O-])c2)c1C(=O)NCCN1CCOCC1` is lower in melting point: 207 to 210 °C for the first, 147 to 148 °C for the second.

First: Cn1c(=O)c2[nH]c(C=Cc3cccc(C(F)(F)F)c3)nc2n(C)c1=O
Second: CCOC(=O)c1cc2c(-c3ccc(C(F)(F)F)n(C)c3=O)c(F)cc(Cl)c2o1
The melting point of the first is higher: greater than 300 °C for the first, 118 to 120 °C for the second.

First: C#CCOC1c2ccccc2Oc2ccccc21
Second: O=c1c2ccccc2n(CCCOC2CCCCO2)c2ccccc12 (stereo not drawn)
The melting point of the first is lower: 74 to 76 °C for the first, 140 to 142 °C for the second.

First: CN(C)c1ccc2c(c1)SC1=NCCN12
Second: CSc1ccc2sc(C(N)=O)c(N(C)C)c2c1
The melting point of the first is higher: 144 °C for the first, 140 to 142 °C for the second.

First: NC(=O)C1CCN(c2c(Cl)cncc2Cl)C1 (stereo not drawn)
Second: Cc1ccc2c(=O)c(C(=O)O)cn(N)c2n1
The melting point of the first is lower: 161 to 163 °C for the first, 239 to 240 °C for the second.

First: O=C1Nc2cccnc2N(C(=O)N2CCC(CCCN3CCCCC3)CC2)c2ccccc21
Second: O=C(CCCN1CCN(c2ccccc2Cl)CC1)N1CCc2ccccc21
The melting point of the first is higher: 200 °C for the first, 119 to 121 °C for the second.

First: CCc1cccc(CC)c1NC(=O)c1c2n(c(C)c(Br)c1=O)CCCC2
Second: Cc1cnc2c(NC(=O)c3c(Cl)cccc3Cl)ccc(Br)c2c1
The melting point of the first is lower: 208 to 210 °C for the first, 238 to 239 °C for the second.

First: C[C@@H](S[C@H]1CO[C@H](c2ccc(C(=O)Nc3ccc(C#N)c4ccccc34)cc2)OC1)[C@](O)(Cn1cncn1)c1ccc(F)cc1F
Second: CC(=CC(=O)Nc1ccccc1OCCCC(=O)O)c1ccc2c(ccn2C(c2ccccc2)c2ccccc2)c1
The melting point of the first is lower: 109 °C for the first, 158 to 162 °C for the second.

Compared with `O=c1[nH]c2cc(Cl)ccc2n1C1CCNCC1`, `Nc1nc(N)nc(C2CCN(Cc3ccccc3)CC2)n1` is higher in melting point: 200 to 206 °C for the first, greater than 260 °C for the second.

First: O=C1N[C@H]2[C@H](O)[C@H](O)[C@@H](O)[C@H](CO)[C@@H]2c2cc3c(cc21)OCO3
Second: CC1Cc2cc3c(cc2C(c2ccc([N+](=O)[O-])cc2)=NN1c1nnns1)OCO3 (stereo not drawn)
The melting point of the first is higher: greater than 200 °C for the first, 109 to 110 °C for the second.

Compared with `C#CCc1c(C)cc(=O)n(O)c1-c1ccccc1`, `FC(F)(F)c1onc(-c2ccc(Cl)o2)c1-c1ccccc1` is lower in melting point: 200 °C for the first, 55 to 57 °C for the second.

First: C=CCC1C2CCC(C2)C1NC(=O)OCc1ccccc1 (stereo not drawn)
Second: O=C(CCCCNC(=O)c1cn2c3c(cccc13)CCC2)NOCc1ccccc1
The melting point of the first is lower: 70 °C for the first, 154 to 155 °C for the second.

First: Cc1cc(Oc2c(Cl)cc(C(F)(F)F)cc2Cl)nn1C(=O)NCC=O
Second: CCCc1cn(CC(=O)O)nc1OCCCc1cn(-c2ccc(C(F)(F)F)cn2)nc1OCC
The melting point of the first is lower: 111 to 113 °C for the first, 134 to 135 °C for the second.

First: N#CC1=C(Nc2ccc(Br)cc2)CCC1
Second: CN=Cc1ccc(-c2ccc(OC)c(Br)c2)cc1
The melting point of the first is higher: 136 to 138 °C for the first, 115 to 117 °C for the second.

First: CCCCCCCCCCCCCCCCCCOC(=O)C1CCC2OC2C1 (stereo not drawn)
Second: CCCCCCCCCCCCCCCC(=O)OC(COCc1ccc(OC)cc1)COC(=O)CCCCCCCCCCCNC(=O)OCc1ccccc1 (stereo not drawn)
The melting point of the first is lower: 32 to 34 °C for the first, 44 to 47 °C for the second.

First: Nc1ccccc1-c1ncn[nH]1
Second: CS(=O)(=O)c1ncnn1CC(O)(Cc1ccccc1Cl)C1(Cl)CC1 (stereo not drawn)
The melting point of the first is higher: 145 to 148 °C for the first, 125 to 128 °C for the second.

First: Cn1nc(N)c2c(=O)n3c(nc21)SCC3
Second: CC1=C(N2CC2)C(=O)c2c([nH]c(CO)c2C)C1=O
The melting point of the first is higher: 280 to 283 °C for the first, 224 to 225 °C for the second.

First: CCCCOCCN(CCCCCSc1nc(-c2ccccc2)c(-c2ccccc2)[nH]1)C(=O)Nc1ccc(F)cc1F
Second: Cc1nnc(C(=O)CCCCCCOc2ccc(OCc3ccccc3)cc2)o1
The melting point of the first is lower: 69 to 71 °C for the first, 118 to 120 °C for the second.

First: COc1cc(C(O)Cc2ccccc2)ccc1OCc1ccccc1 (stereo not drawn)
Second: CS(=O)(=O)C(=C1CN(C(c2ccccc2)c2ccccc2)C1)c1ccccc1Cl
The melting point of the first is lower: 97 to 98 °C for the first, 204 °C for the second.

First: COC(=O)c1nc2nc(C(C)C)cc(O)n2n1
Second: COc1cc(Cc2cnc(N)nc2N)cc2c(C)cc(C)nc12
The melting point of the first is lower: 198 to 201 °C for the first, 289 to 290 °C for the second.

First: O=C1N(c2ccccc2)c2ccccc2C1(Cc1ccccn1)Cc1ccccn1
Second: O=C1c2ccccc2CN1c1ccc(CCN2CCN(c3nsc4ccccc34)CC2)cc1
The melting point of the first is lower: 107 to 111 °C for the first, 176 °C for the second.

Compared with `O=c1[nH]c(=O)n([C@@H]2CO[C@H](CO)[C@@H](O)C2)cc1I`, `CNn1c(N(C)C)nn(C(=O)NC2CCCC2)c1=O` is lower in melting point: 219 to 220 °C for the first, 137 °C for the second.

First: CS(=O)(=O)Oc1ccc(-c2c3ccccc3c(C(F)(F)F)c3sc4ccccc4c23)cc1
Second: CCOC(=O)c1cn(Cc2ccccc2)nc1OCc1ccc(OCc2nc(-c3ccco3)oc2C)cc1
The melting point of the first is higher: 215 to 216 °C for the first, 101 to 102 °C for the second.

First: O=[N+]([O-])c1cccc(C2=NCN(c3cccnc3)S2)c1
Second: Cc1ccc(C(=O)NC(C)NC(=S)Nc2cccc([N+](=O)[O-])c2)cc1 (stereo not drawn)
The melting point of the first is lower: 109 to 111 °C for the first, 172 to 175 °C for the second.

First: O=C(O)CCCSc1cccc(Br)n1
Second: Cc1c([N+](=O)[O-])ccc2c1ccn2C
The melting point of the first is lower: 72 to 74 °C for the first, 120 to 123 °C for the second.

First: CNC(=S)C1(c2cccnc2)CCCCC1NOCCO (stereo not drawn)
Second: O=C1NCC(c2cccc(C(F)(F)F)c2)C1c1cn2c3c(cccc13)CCC2 (stereo not drawn)
The melting point of the first is higher: 142 to 145 °C for the first, 82 to 85 °C for the second.

Compared with `Oc1c(F)cc(Cn2cnnc2S)cc1F`, `CCCOc1ccc(S(=O)(=O)N(C)C)cc1C1=NC(=O)C2=NC=NC2=N1` is higher in melting point: 184 to 185 °C for the first, 268 to 269 °C for the second.

`CCNS(=O)(=O)c1ccc(C2=C(c3cccc(F)c3)C(=O)C(C)(C)O2)cc1` gave a melting point of 113 to 114 °C.

Reference: a melting point compilation (Tetko et al.; mined from patent text by program, amines drawn as free bases though some values may be those of a salt)
